# Data reported in PubChem BioAssay (NCI).
#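 Five concentrations, 48 hours, 96-well plates. Here, GI50 denotes the concentration required for 50% inhibition of growth. TGI: concentration producing complete growth inhibition.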
# Legend:
# Test in all cases: DTP human tumour cell line panel, 48 h
# 786-0 renal = system: 786-0 renal
# A549 NSCLC = system: A549 NSCLC
# ACHN renal = system: ACHN renal
# BT-549 breast = system: BT-549 breast
# CAKI-1 renal = system: CAKI-1 renal
# CCRF-CEM leukemia = system: CCRF-CEM leukemia
# COLO 205 colon = system: COLO 205 colon
# DU-145 prostate = system: DU-145 prostate
# HCC-2998 colon = system: HCC-2998 colon
# HL-60(TB) leukemia = system: HL-60(TB) leukemia
# HOP-62 NSCLC = system: HOP-62 NSCLC
# HOP-92 NSCLC = system: HOP-92 NSCLC
# HS 578T breast = system: HS 578T breast
# HT29 colon = system: HT29 colon
# IGROV1 ovarian = system: IGROV1 ovarian
# K-562 leukemia = system: K-562 leukemia
# KM12 colon = system: KM12 colon
# LOX IMVI melanoma = system: LOX IMVI melanoma
# M14 melanoma = system: M14 melanoma
# MALME-3M melanoma = system: MALME-3M melanoma
# MDA-MB-231 breast = system: MDA-MB-231 breast
# MDA-MB-435 = system: MDA-MB-435
# MOLT-4 leukemia = system: MOLT-4 leukemia
# NCI-H226 lung = system: NCI-H226 lung
# NCI-H23 lung = system: NCI-H23 lung
# NCI-H460 lung = system: NCI-H460 lung
# NCI-H522 lung = system: NCI-H522 lung
# NCI/ADR-RES ovarian = system: NCI/ADR-RES ovarian
# OVCAR-3 ovarian = system: OVCAR-3 ovarian
# OVCAR-4 ovarian = system: OVCAR-4 ovarian
# OVCAR-5 ovarian = system: OVCAR-5 ovarian
# OVCAR-8 ovarian = system: OVCAR-8 ovarian
# PC-3 prostate = system: PC-3 prostate
# RPMI-8226 leukemia = system: RPMI-8226 leukemia
# RXF 393 renal = system: RXF 393 renal
# SF-268 CNS = system: SF-268 CNS
# SF-295 CNS = system: SF-295 CNS
# SF-539 CNS = system: SF-539 CNS
# SK-MEL-2 melanoma = system: SK-MEL-2 melanoma
# SK-MEL-28 melanoma = system: SK-MEL-28 melanoma
# SK-MEL-5 melanoma = system: SK-MEL-5 melanoma
# SK-OV-3 ovarian = system: SK-OV-3 ovarian
# SN12C renal = system: SN12C renal
# SNB-19 CNS = system: SNB-19 CNS
# SNB-75 CNS = system: SNB-75 CNS
# SW-620 colon = system: SW-620 colon
# T-47D breast = system: T-47D breast
# TK-10 renal = system: TK-10 renal
# U251 CNS = system: U251 CNS
# UACC-257 melanoma = system: UACC-257 melanoma
# UACC-62 melanoma = system: UACC-62 melanoma
# UO-31 renal = system: UO-31 renal
smiles,measurement,setting,value
CSc1ccc(-c2cc(-c3ccc(NC(=O)CCCN4CCCC4)cc3)nc(-c3ccc(NC(=O)CCCN4CCCC4)cc3)c2)cc1,GI50,786-0 renal,6.88 µM
same,TGI,786-0 renal,23.9 µM
same,GI50,A549 NSCLC,1.67 µM
same,TGI,A549 NSCLC,3.17 µM
same,GI50,ACHN renal,3.65 µM
same,TGI,ACHN renal,13.9 µM
same,GI50,BT-549 breast,2.21 µM
same,TGI,BT-549 breast,5.49 µM
same,GI50,CAKI-1 renal,4.94 µM
same,TGI,CAKI-1 renal,21.3 µM
same,GI50,CCRF-CEM leukemia,1.9 µM
same,TGI,CCRF-CEM leukemia,3.61 µM
same,GI50,COLO 205 colon,2.05 µM
same,TGI,COLO 205 colon,4.39 µM
same,GI50,DU-145 prostate,4.1 µM
same,TGI,DU-145 prostate,13.3 µM
same,GI50,HCC-2998 colon,2.49 µM
same,TGI,HCC-2998 colon,6.5 µM
same,GI50,HL-60(TB) leukemia,6.54 µM
same,TGI,HL-60(TB) leukemia,23.5 µM
same,GI50,HOP-62 NSCLC,1.7 µM
same,TGI,HOP-62 NSCLC,3.5 µM
same,GI50,HOP-92 NSCLC,1.72 µM
same,TGI,HOP-92 NSCLC,5.61 µM
same,GI50,HS 578T breast,2.28 µM
same,TGI,HS 578T breast,6.38 µM
same,GI50,HT29 colon,1.71 µM
same,TGI,HT29 colon,3.13 µM
same,GI50,IGROV1 ovarian,10.3 µM
same,TGI,IGROV1 ovarian,33.8 µM
same,GI50,K-562 leukemia,1.64 µM
same,TGI,K-562 leukemia,3.31 µM
same,GI50,KM12 colon,1.87 µM
same,TGI,KM12 colon,3.3 µM
same,GI50,LOX IMVI melanoma,2.01 µM
same,TGI,LOX IMVI melanoma,4.18 µM
same,GI50,M14 melanoma,4.23 µM
same,TGI,M14 melanoma,17.4 µM
same,GI50,MALME-3M melanoma,14 µM
same,TGI,MALME-3M melanoma,42.7 µM
same,GI50,MDA-MB-231 breast,1.85 µM
same,TGI,MDA-MB-231 breast,3.69 µM
same,GI50,MDA-MB-435,1.68 µM
same,TGI,MDA-MB-435,3.06 µM
same,GI50,MOLT-4 leukemia,1.79 µM
same,TGI,MOLT-4 leukemia,3.62 µM
same,GI50,NCI-H226 lung,3.12 µM
same,TGI,NCI-H226 lung,16.1 µM
same,GI50,NCI-H23 lung,1.67 µM
same,TGI,NCI-H23 lung,3.16 µM
same,GI50,NCI-H460 lung,1.81 µM
same,TGI,NCI-H460 lung,3.28 µM
same,GI50,NCI-H522 lung,1.91 µM
same,TGI,NCI-H522 lung,3.59 µM
same,GI50,NCI/ADR-RES ovarian,12.4 µM
same,TGI,NCI/ADR-RES ovarian,31.3 µM
same,GI50,OVCAR-3 ovarian,3.97 µM
same,TGI,OVCAR-3 ovarian,14.6 µM
same,GI50,OVCAR-4 ovarian,2.91 µM
same,TGI,OVCAR-4 ovarian,12.9 µM
same,GI50,OVCAR-5 ovarian,2.28 µM
same,TGI,OVCAR-5 ovarian,4.86 µM
same,GI50,OVCAR-8 ovarian,3.3 µM
same,TGI,OVCAR-8 ovarian,13.6 µM
same,GI50,PC-3 prostate,1.8 µM
same,TGI,PC-3 prostate,3.4 µM
same,GI50,RPMI-8226 leukemia,2.16 µM
same,TGI,RPMI-8226 leukemia,4.56 µM
same,GI50,RXF 393 renal,2.23 µM
same,TGI,RXF 393 renal,5.93 µM
same,GI50,SF-268 CNS,2.15 µM
same,TGI,SF-268 CNS,5.01 µM
same,GI50,SF-295 CNS,3.29 µM
same,TGI,SF-295 CNS,15.4 µM
same,GI50,SF-539 CNS,2.52 µM
same,TGI,SF-539 CNS,7.54 µM
same,GI50,SK-MEL-2 melanoma,4.58 µM
same,TGI,SK-MEL-2 melanoma,19.2 µM
same,GI50,SK-MEL-28 melanoma,3.83 µM
same,TGI,SK-MEL-28 melanoma,20.7 µM
same,GI50,SK-MEL-5 melanoma,2.74 µM
same,TGI,SK-MEL-5 melanoma,10.7 µM
same,GI50,SK-OV-3 ovarian,2.97 µM
same,TGI,SK-OV-3 ovarian,8.74 µM
same,GI50,SN12C renal,3.46 µM
same,TGI,SN12C renal,17.1 µM
same,GI50,SNB-19 CNS,4.92 µM
same,TGI,SNB-19 CNS,23.8 µM
same,GI50,SNB-75 CNS,1.64 µM
same,TGI,SNB-75 CNS,4.99 µM
same,GI50,SW-620 colon,1.79 µM
same,TGI,SW-620 colon,3.29 µM
same,GI50,T-47D breast,6.52 µM
same,TGI,T-47D breast,21.7 µM
same,GI50,TK-10 renal,4.56 µM
same,TGI,TK-10 renal,17.5 µM
same,GI50,U251 CNS,1.64 µM
same,TGI,U251 CNS,3.12 µM
same,GI50,UACC-257 melanoma,4.94 µM
same,TGI,UACC-257 melanoma,25.2 µM
same,GI50,UACC-62 melanoma,11.9 µM
same,TGI,UACC-62 melanoma,32.4 µM
same,GI50,UO-31 renal,15.5 µM
same,TGI,UO-31 renal,37.8 µM
